Measurements as given in patent US8669257B2, “Phenazine derivatives and uses thereof as potassium channel modulators” (The Johns Hopkins University, priority 2007, dated 2014).
“Also recorded” adds a separate entry of the source. Like-named read-outs stand apart in the source and are kept apart here.

Columns and labels:
[1] = biological target: T1, human Kv1.5 (Homo sapiens, UniProt P22460); test: Patch-clamp of heterologous human Kv1.5 expressed in MEL cells; type: cell-based
T1 construct: expressed in transfected cells; host or cells: MEL cells
Experimental: (§1) Patch pipettes, pulled from glass capillaries (inner diameter 1.5 mm, Kimble products) with a horizontal puller (Sutter instruments, Modell P-97), were fire-polished, and had resistances between 2 and 4 MOhm. Patch-clamp experiments were performed in the tight-seal whole-cell configuration at room temperature (22-24° C.). High-resolution current recordings were acquired by a computer-based patch-clamp amplifier system (EPC-9, HEKA). Immediately following establishment of the whole-cell configuration, every two seconds voltage ramps of 50 ms duration spanning the voltage range of −100 to +100 mV for Jurkat T-cells and −150 to +150 mV for HEK293 were delivered from a holding potential (Vh) of −70 mV for Jurkats and 0 mV for HEK293 cells over a period of 300-600 s. […] Capacitive currents and series resistance were determined and corrected before each voltage ramp using the automatic capacitance compensation of the EPC-9. […] Kv1.3 currents in Jurkat T-cells were measured at +80 mV. Heterologously expressed Kv1.1, Kv1.2, Kv1.3, Kv1.5 and Kv3.1 were assessed at +80 mV except in Figure S7, where currents were additionally measured at the more physiological voltage of 0 mV. CRAC currents in HEK293 cells were assessed at −80 mV. […]

[2] = tested on: NF-κB luciferase reporter; test: NF-κB luciferase reporter assay in Jurkat T-cells; type: cell-based, human; conditions: FIG. 1C
[3] = tested on: calcium influx in Jurkat T-cells; test: Calcium imaging assay: store-depletion induced calcium influx in Jurkat T-cells; type: cell-based, human; conditions: thapsigargin then 2 mM Ca2+; clofazimine preincubated 5 min
Experimental: JurkaT-cells were attached to L-lysine-coated glass dishes (MatTek). Cells were loaded with fura-2-AM (Invitrogen_F-1201) for 45 min before they were washed sequentially with growth medium and Ca^2+-free HBSS. Fluorescence excitation wavelengths were set at 350 and 380 nm, respectively, on a Zeiss Axiovert 200M microscope while emission wavelength was set at 510 nm. Changes in intracellular calcium concentrations were determined by fluorescence intensity ratio ([…]/F380).

[4] = tested on: human foreskin graft in Pfp/Rag2−/− mice with human PBL; test: Human T-cell-mediated human skin graft rejection in immunodeficient mice; type: in vivo, mouse
Text: Kv1.3 has been implicated in T-cell activation and has served as a molecular target for developing novel immunosuppressive agents. Given that clofazimine is already used in the clinic, albeit for a completely different indication, we wondered whether it is efficacious in animal models of organ transplantation. […] These negative results are not surprising given that Kv1.3 plays distinct roles in humans and rodents, as it has been shown that Kv1.3 is dispensable in mice due to the up-regulation of other chloride channels. […] To overcome this problem, we turned to a model of reconstituted human T-cell-mediated human skin rejection in immunodeficient mice. We thus transplanted human foreskin into Pfb-Rag2−/− mice that lack T, B and NK cells. Upon healing of the skin graft for about 7 days, a total of 100 million human peripheral blood lymphocytes from an unrelated donor were adoptively transferred into the same animals. The animals were treated orally with either DMSO (control) or clofazimine at 50 mg/kg/day for a total of 10 days (FIG. 5A). For the control group, the transplanted foreskin was rejected with a median survival time of 11 days (FIG. 5B).
The experimental procedure is similar to that described previously. Clofazimine suspension in olive oil was administered p.o. at 50 mg/kg/day in a total volume of 0.2 ml per administration.

[5] = tested on: IL-2 proximal promoter driven-luciferase; test: IL-2 luciferase reporter assay in Jurkat T-cells (PMA/ionomycin); type: cell-based, human; conditions: for IC50: n=6
[6] = tested on: IL-2 production in Jurkat T-cells; test: IL-2 secreted from stimulated Jurkat T-cells (ELISA); type: cell-based; conditions: Homo sapiens; PMA/thapsigargin-stimulated Jurkat T-cells, FIG. 1B, n=6
Experimental: Jurkat E6.1 T-cells (1×10^5 in 180 μl) were seeded into 96-well plates. Cells in each well were treated with different concentrations of clofazimine for 1 h before 1 μM ionomycin and 40 nM PMA were added. The incubation was continued for 2 days. The plates were centrifuged at 1,200×g for 5 min, and the supernatant from each well was collected followed by ELISA detection of IL-2. The primary antibody, biotinylated secondary antibody and HRP conjugated avidin were purchase from BD/Pharmingen.

[7] = biological target: T2, Kv1.3 (Homo sapiens, UniProt P22001); test: Patch-clamp of Kv1.3 currents in Jurkat T-cells; type: cell-based
T2 construct: endogenous in cells; host or cells: Jurkat T-cells
Experimental: as §1

[8] = biological target: T3, mouse Kv3.1 (Mus musculus, UniProt P15388); test: Patch-clamp of heterologous mouse Kv3.1 expressed in L929 cells; type: cell-based
T3 construct: expressed in transfected cells; host or cells: L929 cells
Experimental: as §1

[9] = tested on: CRAC channel (CRACM1, CRACM2, CRACM3 with STIM1); test: Patch-clamp of reconstituted CRAC current in HEK293 cells; type: cell-based; conditions: CRACM1, CRACM2 or CRACM3 with STIM1 in HEK293 cells
Experimental: as §1

[10] = tested on: mouse primary T-cells; test: IL-2 production from anti-CD3/anti-CD28-stimulated mouse primary T-cells; type: cell-based; conditions: n=3

T3 sequence (P15388 whole entry): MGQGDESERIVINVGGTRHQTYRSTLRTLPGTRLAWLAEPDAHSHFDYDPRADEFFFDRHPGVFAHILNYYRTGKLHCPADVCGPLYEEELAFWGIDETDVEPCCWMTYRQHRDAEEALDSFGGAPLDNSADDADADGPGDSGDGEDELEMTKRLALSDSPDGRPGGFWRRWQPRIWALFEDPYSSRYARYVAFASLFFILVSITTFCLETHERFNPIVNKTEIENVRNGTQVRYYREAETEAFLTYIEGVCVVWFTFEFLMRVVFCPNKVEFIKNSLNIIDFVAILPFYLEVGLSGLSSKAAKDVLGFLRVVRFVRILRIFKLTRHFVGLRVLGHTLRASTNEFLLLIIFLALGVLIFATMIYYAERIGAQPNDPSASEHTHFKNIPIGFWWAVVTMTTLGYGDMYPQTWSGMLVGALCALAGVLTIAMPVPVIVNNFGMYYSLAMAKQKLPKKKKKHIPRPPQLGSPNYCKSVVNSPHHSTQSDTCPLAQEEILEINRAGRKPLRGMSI
T1 sequence (P22460 whole entry): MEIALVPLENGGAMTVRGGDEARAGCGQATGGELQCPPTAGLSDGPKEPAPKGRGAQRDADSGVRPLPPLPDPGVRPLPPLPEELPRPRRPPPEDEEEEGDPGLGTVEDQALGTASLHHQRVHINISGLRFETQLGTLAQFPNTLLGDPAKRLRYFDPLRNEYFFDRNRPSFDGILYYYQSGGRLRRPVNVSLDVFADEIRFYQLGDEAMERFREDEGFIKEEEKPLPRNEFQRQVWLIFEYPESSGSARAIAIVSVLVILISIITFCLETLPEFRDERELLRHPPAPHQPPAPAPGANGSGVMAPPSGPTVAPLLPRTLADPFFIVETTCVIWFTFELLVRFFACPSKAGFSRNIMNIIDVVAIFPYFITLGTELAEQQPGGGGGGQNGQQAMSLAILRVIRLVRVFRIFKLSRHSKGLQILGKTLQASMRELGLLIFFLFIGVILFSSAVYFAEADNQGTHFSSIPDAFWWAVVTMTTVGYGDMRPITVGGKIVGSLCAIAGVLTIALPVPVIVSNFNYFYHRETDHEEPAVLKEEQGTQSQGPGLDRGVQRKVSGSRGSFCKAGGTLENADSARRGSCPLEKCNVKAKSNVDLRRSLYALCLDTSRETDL
T2 sequence (P22001 whole entry): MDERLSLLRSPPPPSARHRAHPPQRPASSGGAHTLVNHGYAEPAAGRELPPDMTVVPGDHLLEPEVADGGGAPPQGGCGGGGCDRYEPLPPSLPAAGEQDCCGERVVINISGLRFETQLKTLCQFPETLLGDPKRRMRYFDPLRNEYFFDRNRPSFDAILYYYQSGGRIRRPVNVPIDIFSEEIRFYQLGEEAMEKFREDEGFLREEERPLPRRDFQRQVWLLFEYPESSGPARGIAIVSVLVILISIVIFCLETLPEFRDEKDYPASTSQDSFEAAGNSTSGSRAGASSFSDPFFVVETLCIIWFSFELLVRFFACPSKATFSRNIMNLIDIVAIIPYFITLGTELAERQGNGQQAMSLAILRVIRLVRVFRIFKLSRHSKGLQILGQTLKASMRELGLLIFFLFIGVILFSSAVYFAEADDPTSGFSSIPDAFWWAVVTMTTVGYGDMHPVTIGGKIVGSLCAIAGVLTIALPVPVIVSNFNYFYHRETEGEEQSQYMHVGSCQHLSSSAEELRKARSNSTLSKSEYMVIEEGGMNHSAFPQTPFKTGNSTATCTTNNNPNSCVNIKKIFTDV

## CC(C)/N=c1\cc2n(-c3ccc(Cl)cc3)c3ccccc3nc-2cc1Nc1ccc(Cl)cc1 [clofazimine, Clofazimine]
[1]; 10 μM
  block of current, human Kv1.5: less than 50%
[1]; inferred from block at 10 μM
  IC50: > 10 µM
[2]
  NF-κB luciferase reporter less sensitive than IL-2 promoter-driven reporter: about 40 fold
[2]; Homo sapiens, Jurkat, PMA/ionomycin, n=6
  IC50: 2430 ± 1250 nM
[3]
  effect on calcium entry: inhibited by clofazimine in a heterogeneous fashion; also recorded: only about a quarter of cells are responsive
[4]; 50 mg/kg/day orally for 10 days, n=5
  mean survival time of transplanted human skin: 35 days
[4]; immunodeficient mice
  effect on human T-cell-mediated skin graft rejection: inhibits human T-cell-mediated skin graft rejection
[5]; Homo sapiens, Jurkat, Kv1.3 overexpression low to high, 1st curve, read-out: IC50, IL-2 luciferase reporter, Kv1.3 overexpression
  IC50: 41.6 ± 8.4 nM
[5]; Homo sapiens, Jurkat, Kv1.3 overexpression low to high, 2nd curve, read-out: IC50, IL-2 luciferase reporter, Kv1.3 overexpression
  IC50: 41 ± 14.5 nM
[5]; Homo sapiens, Jurkat, Kv1.3 overexpression low to high, 3rd curve, read-out: IC50, IL-2 luciferase reporter, Kv1.3 overexpression
  IC50: 386 ± 214 nM
[5]; Homo sapiens, Jurkat, Kv1.3 overexpression low to high, 4th curve, read-out: IC50, IL-2 luciferase reporter, Kv1.3 overexpression
  IC50: 1370 ± 520 nM
[5]; Homo sapiens, Jurkat, Kv1.3 overexpression low to high, 5th (highest) curve, read-out: IC50, IL-2 luciferase reporter, Kv1.3 overexpression
  IC50: 1460 ± 630 nM
[5]; Homo sapiens, Jurkat, PMA/ionomycin-stimulated Jurkat T-cells, FIG. 1A, read-out: IC50, IL-2 luciferase reporter
  IC50: 21.8 ± 4.4 nM
[5]; Homo sapiens, Jurkat, control EGFP-siRNA lentiviral transduced Jurkat T-cells, read-out: IC50, IL-2 luciferase reporter
  IC50: 49.9 ± 13 nM
[5]; Homo sapiens, Jurkat, shKv1.3-4 (Kv1.3 knockdown) transduced Jurkat T-cells, read-out: IC50, IL-2 luciferase reporter
  IC50: 10.5 ± 2.4 nM
[5]; Homo sapiens, Jurkat, PMA/ionomycin, FIG. 1C, read-out: IC50, IL-2 luciferase reporter
  IC50: 56 ± 14.8 nM
[5]; PMA/ionomycin-stimulated Jurkat T-cells, FIG. 1A, read-out: IC50, IL-2 luciferase reporter
  IC50: 22 nM
[5]; highest Kv1.3 expression plasmid (2 μg)
  increase in IC50 value upon Kv1.3 overexpression: 35 fold
[5]; shKv1.3-4 vs shRNA against EGFP
  decrease in IC50 values upon Kv1.3 knockdown: ~5 fold
[6]
  IC50: 1100 ± 260 nM
[7]
  Hill coefficient, Kv1.3 current: 0.75
[7]; current at +80 mV, inhibition at 120 s, read-out: IC50, Kv1.3 potassium current
  IC50: 300 nM
[8]; 10 μM
  block of current, mouse Kv3.1: less than 50%
[8]; inferred from block at 10 μM
  IC50: > 10 µM
[9]
  effect on reconstituted CRAC current: no effects
[9]; listed as Clofazimine
  effect on reconstituted CRAC current: without affecting
[10]
  inhibition of IL-2 production in primary mouse T-cells: failed to observe a dose-dependent inhibition
